Laboratory results taken from patent publication US20130197480A1, “METHODS AND SYSTEMS FOR DELIVERY OF LIVE CELLS” (PALOMAR MEDICAL TECHNOLOGIES, INC., priority 2012, published 2013).

Tested on: Human fibroblast cells in culture
Assay: Common laser pre-treatment compounds incubated 45 min with cultured human fibroblasts, visual inspection
Conditions: for Viability/Inspection 24 hrs / Viability/Inspector 1 week: cells rinsed, fresh media; for Viability/Inspection 24 hrs: observed 24 hours post exposure; for Viability/Inspector 1 week: observed one week post exposure; for Viability/nspection 45 min: visual inspection after 45 minutes incubation with compound
Method: AG07999 human skin fibroblasts (HSF; Coriell, Camden, N.J.) were grown to confluence in minimal essential media (MEM; Gibco, Grand Island, N.Y.) supplemented with 10% FBS (Hyclone, Logan, Utah), 20 mM L-glutamine, and 20 mM Glutamax™ (Gibco). Cells were maintained in an incubator at 37° C. and 5% CO2 and serially passaged with trypsin digestion at a 1:3 ratio as needed.
This example describes in vitro (in silico) testing of compounds added to human fibroblast cell cultures to determine any detrimental effects to the cells.
The remaining compositions and mixtures were tested as they are expected to be common treatments that might be used for numbing or cleansing of skin prior to laser treatment and cell delivery, or coagulation compounds, that are available in most physician offices. […] In addition, the delivery vehicle for SRF and lidocaine were tested to determine which vehicle (cream, lotion, petrolatum, lipoderm) was least destructive to the cells.

SMILES	Viability/Inspection 24 hrs	Viability/Inspector 1 week	Viability/nspection 45 min
CCN(CC)CC(=O)Nc1c(C)cccc1C [Lidocaine 0.5%, Lidocaine]	Normal	Confluent/overgrown	Normal
CNC[C@H](O)c1ccc(O)c(O)c1 [Epinephrine 1:10,000,000, Epinephrine]	Normal	Confluent/overgrown	Normal
CNC[C@H](O)c1ccc(O)c(O)c1 [Epinephrine 1:100,000, Epinephrine]	Normal	Confluent/overgrown	Slight change in morphology,
